{"source": "patent US20050009929A1", "about": "“Inhibition of the asexual reproduction of fungi” (priority 2001, published 2005)", "test_system": "Aspergillus niger", "test": "Effect of farnesol on the sporulation of Aspergillus niger on malt extract agar", "assay_type": "cell-based", "details": "5 days at 25° C.; for Sporulation [%]: evaluated by appearance", "protocol": "Quantities of 100 μl of a cell suspension of Aspergillus niger (1.5·10^7 cells/ml) were plated out onto malt agar extract (Merck) to which farnesol had been added in various quantities of 0; 25; 62.5; 125; 250 and 500 μM.", "data": [{"molecule": "CC(C)=CCCC(C)=CCCC(C)=CCO", "note": "[farnesol]", "values": [{"measurement": "Sporulation [%]", "setting": "farnesol 25 μM in agar", "value": 90, "unit": "%"}, {"measurement": "Sporulation [%]", "setting": "farnesol 62.5 μM in agar", "value": 75, "unit": "%"}, {"measurement": "Sporulation [%]", "setting": "farnesol 125 μM in agar", "value": 50, "unit": "%"}, {"measurement": "Sporulation [%]", "setting": "farnesol 250 μM in agar", "value": 10, "unit": "%"}, {"measurement": "inhibition of sporulation (in words)", "setting": "farnesol 500 μM in agar", "value": "completely suppressed"}, {"measurement": "Sporulation [%]", "setting": "farnesol 500 μM in agar", "value": 0, "unit": "%"}, {"measurement": "inhibition of growth", "setting": "farnesol 25 to 500 μM in agar", "value": "None of the farnesol concentrations used inhibited growth"}]}]}
